The text below walks through data of patent US20100105655A1, “NOVEL COMPOUNDS 515” (ASTRAZENECA AB, priority 2008, published 2010).

The structures appear in SMILES notation.

Broadly, the IC50 is the concentration that gives 50% inhibition.

The target of this assay is T1, IGFR kinase (Homo sapiens, UniProt P08069).
T1 construct: purchased Millipore
T1 sequence (P08069 31-1367): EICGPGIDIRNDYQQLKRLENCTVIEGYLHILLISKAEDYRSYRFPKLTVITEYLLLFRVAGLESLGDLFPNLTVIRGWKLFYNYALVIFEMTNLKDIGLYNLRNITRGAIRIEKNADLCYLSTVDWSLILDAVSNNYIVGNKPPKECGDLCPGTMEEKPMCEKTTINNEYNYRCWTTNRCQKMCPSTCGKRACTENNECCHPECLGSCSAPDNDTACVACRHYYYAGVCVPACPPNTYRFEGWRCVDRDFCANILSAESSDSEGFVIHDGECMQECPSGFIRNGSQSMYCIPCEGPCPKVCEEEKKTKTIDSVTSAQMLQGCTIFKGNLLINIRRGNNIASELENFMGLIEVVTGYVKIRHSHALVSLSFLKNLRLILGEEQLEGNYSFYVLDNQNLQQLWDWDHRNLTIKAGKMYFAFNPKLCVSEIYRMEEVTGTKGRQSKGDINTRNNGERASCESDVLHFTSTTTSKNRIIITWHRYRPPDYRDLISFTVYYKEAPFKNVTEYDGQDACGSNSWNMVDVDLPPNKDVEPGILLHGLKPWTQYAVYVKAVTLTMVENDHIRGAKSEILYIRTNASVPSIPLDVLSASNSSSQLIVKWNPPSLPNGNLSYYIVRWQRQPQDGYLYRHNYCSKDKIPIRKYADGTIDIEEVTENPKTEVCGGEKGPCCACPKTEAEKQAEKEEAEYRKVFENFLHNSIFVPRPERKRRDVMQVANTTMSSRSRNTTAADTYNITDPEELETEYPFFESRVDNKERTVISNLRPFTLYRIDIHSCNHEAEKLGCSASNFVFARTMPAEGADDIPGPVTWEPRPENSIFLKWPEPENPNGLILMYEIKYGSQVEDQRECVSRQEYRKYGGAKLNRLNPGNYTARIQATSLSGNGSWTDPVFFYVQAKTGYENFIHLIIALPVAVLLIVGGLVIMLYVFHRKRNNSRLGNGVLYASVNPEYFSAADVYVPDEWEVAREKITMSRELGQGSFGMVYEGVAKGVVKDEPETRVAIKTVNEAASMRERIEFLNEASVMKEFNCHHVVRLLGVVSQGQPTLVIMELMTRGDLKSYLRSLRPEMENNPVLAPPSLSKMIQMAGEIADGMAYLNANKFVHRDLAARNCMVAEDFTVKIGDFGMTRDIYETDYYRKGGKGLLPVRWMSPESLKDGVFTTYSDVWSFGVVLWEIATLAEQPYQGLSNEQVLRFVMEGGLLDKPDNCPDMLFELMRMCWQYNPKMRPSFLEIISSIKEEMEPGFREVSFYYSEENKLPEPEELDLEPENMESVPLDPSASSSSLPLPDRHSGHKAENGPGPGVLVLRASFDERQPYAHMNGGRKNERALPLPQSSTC
The assay is described as follows: Enzyme assay (c), IGFR kinase, Caliper LabChip. To be noted: 30 nM IGFR kinase, 6 uM ATP, 3 uM peptide mix; read-out: IGFR IC50. Format: biochemical.
Take `COc1cc(N2CCN(C(C)=O)CC2)ccc1Nc1ncc(C(F)(F)F)c(-c2cnc3ccccn23)n1` [Example 107, 1-[4-[4-[[4-imidazo[1,2-a]pyridin-3-yl-5-(trifluoromethyl)pyrimidin-2-yl]amino]-3-methoxy-phenyl]piperazin-1-yl]ethanone]: the IC50 was determined as 15 nM.
The same measure for `COc1cc(C2CCN(C(C)=O)CC2)ccc1Nc1ncc(C(F)(F)F)c(-c2cnc3ccccn23)n1` [Example 108, 1-[4-[4-[[4-imidazo[1,2-a]pyridin-3-yl-5-(trifluoromethyl)pyrimidin-2-yl]amino]-3-methoxy-phenyl]-1-piperidyl]ethanone]: 14 nM; for `COc1cc(N2CCN(CCO)CC2)ccc1Nc1ncc(C(F)(F)F)c(-c2cnc3ccccn23)n1` [Example 109, 2-[4-[4-[[4-imidazo[1,2-a]pyridin-3-yl-5-(trifluoromethyl)pyrimidin-2-yl]amino]-3-methoxy-phenyl]piperazin-1-yl]ethanol]: 16 nM; for `COc1cc(OC2CCN(C(C)=O)CC2)ccc1Nc1ncc(C(F)(F)F)c(-c2cnc3ccccn23)n1` [Example 110, 1-[4-[4-[[4-imidazo[1,2-a]pyridin-3-yl-5-(trifluoromethyl)pyrimidin-2-yl]amino]-3-methoxy-phenoxy]-1-piperidyl]ethanone]: 36 nM.
With `COc1cc(N2CCC(O)CC2)ccc1Nc1ncc(F)c(-c2cnc3ccccn23)n1` [Example 111, 1-[4-[(5-fluoro-4-imidazo[1,2-a]pyridin-3-yl-pyrimidin-2-yl)amino]-3-methoxy-phenyl]piperidin-4-ol] the figure was 49 nM; with `COc1ccc(C2CCNCC2)cc1Nc1ncc(F)c(-c2cnc3ccccn23)n1` [Example 112, 5-fluoro-4-imidazo[1,2-a]pyridin-3-yl-N-[2-methoxy-5-(4-piperidyl)phenyl]pyrimidin-2-amine], 42 nM.
With `COc1cc(C2CCOCC2)ccc1Nc1ncc(F)c(-c2cnc3ccccn23)n1` [Example 113, 5-fluoro-4-imidazo[1,2-a]pyridin-3-yl-N-(2-methoxy-4-tetrahydropyran-4-yl-phenyl)pyrimidin-2-amine] the figure was 33 nM.
`COc1cc(OC[C@H]2CCCN2C(C)=O)ccc1Nc1ncc(OC)c(-c2cnc3ccccn23)n1` [Example 114, 1-[(2R)-2-[[4-[(4-imidazo[1,2-a]pyridin-3-yl-5-methoxy-pyrimidin-2-yl)amino]-3-methoxy-phenoxy]methyl]pyrrolidin-1-yl]ethanone]: the half-inhibitory concentration (IC50) amounted to 13 nM.
As to `COc1cc(N2CCN(CCO)CC2)ccc1Nc1ncc(Br)c(-c2cnc3ccccn23)n1` [Example 115, 2-[4-[4-[(5-bromo-4-imidazo[1,2-a]pyridin-3-yl-pyrimidin-2-yl)amino]-3-methoxy-phenyl]piperazin-1-yl]ethanol], the IC50 amounted to 5 nM.
Take `COc1cc(N2CCN(CCO)CC2)ccc1Nc1ncc(C#N)c(-c2cnc3ccccn23)n1` [Example 116, 2-[[4-[4-(2-hydroxyethyl)piperazin-1-yl]-2-methoxy-phenyl]amino]-4-imidazo[1,2-a]pyridin-3-yl-pyrimidine-5-carbonitrile]: the IC50 is 13 nM.
`COc1cc(N2CCN(C(C)=O)CC2)ccc1Nc1ncc(C#N)c(-c2cnc3ccccn23)n1` [Example 118, 2-[[4-(4-acetylpiperazin-1-yl)-2-methoxy-phenyl]amino]-4-imidazo[1,2-a]pyridin-3-yl-pyrimidine-5-carbonitrile]: the half-inhibitory concentration (IC50) is 92 nM.
Take `COc1cc(N2CCN(C)CC2)ccc1Nc1ncc(F)c(-c2cnc3ccccn23)n1` [Example 119, 5-fluoro-4-imidazo[1,2-a]pyridin-3-yl-N-[2-methoxy-4-(4-methylpiperazin-1-yl)phenyl]pyrimidin-2-amine]: the concentration for half-maximal inhibition (IC50) turned out to be 95 nM.
The same measure for `CCN1CCN(c2ccc(Nc3ncc(F)c(-c4cnc5ccccn45)n3)c(OC)c2)CC1` [Example 120, N-[4-(4-ethylpiperazin-1-yl)-2-methoxyphenyl]-5-fluoro-4-imidazo[1,2-a]pyridin-3-ylpyrimidin-2-amine]: 128 nM; for `COc1cc(N2CCN(C)CC2)ccc1Nc1ncc(Br)c(-c2cnc3ccccn23)n1` [Example 121, 5-bromo-4-imidazo[1,2-a]pyridin-3-yl-N-[2-methoxy-4-(4-methylpiperazin-1-yl)phenyl]pyrimidin-2-amine]: 15 nM; for `CCOc1cc(N2CCN(C)CC2)ccc1Nc1ncc(Br)c(-c2cnc3ccccn23)n1` [Example 122, 5-bromo-N-[2-ethoxy-4-(4-methylpiperazin-1-yl)phenyl]-4-imidazo[1,2-a]pyridin-3-yl-pyrimidin-2-amine]: 8 nM.
The same measure for `COc1cc(OC2CCN(C)C2)ccc1Nc1ncc(Br)c(-c2cnc3ccccn23)n1` (stereo not drawn) [Example 123, 5-bromo-4-imidazo[1,2-a]pyridin-3-yl-N-[2-methoxy-4-(1-methylpyrrolidin-3-yl)oxy-phenyl]pyrimidin-2-amine]: 5 nM.
The same measure for `COc1cc(C)c(Nc2ncc(Br)c(-c3cnc4ccccn34)n2)cc1OC` [Example 124, 5-bromo-N-(4,5-dimethoxy-2-methyl-phenyl)-4-imidazo[1,2-a]pyridin-3-yl-pyrimidin-2-amine]: 31 nM; for `COc1cc(N2CCN(C(C)=O)CC2)ccc1Nc1ncc(Cl)c(-c2cnc3ccc(Br)cn23)n1` [Example 126.1, 1-[4-[4-[[4-(6-bromoimidazo[1,2-a]pyridin-3-yl)-5-chloropyrimidin-2-yl]amino]-3-methoxyphenyl]piperazin-1-yl]ethanone]: 9 nM.
As for `CCc1ccn2c(-c3nc(Nc4ccc(N5CCN(C(C)=O)CC5)cc4OC)ncc3Cl)cnc2c1` [Example 126.8, 1-[4-[4-[[5-chloro-4-(7-ethylimidazo[1,2-a]pyridin-3-yl)pyrimidin-2-yl]amino]-3-methoxyphenyl]piperazin-1-yl]ethanone], the IC50 was 21 nM.
The same measure for `COc1cc(N2CCN(C(C)=O)CC2)ccc1Nc1ncc(Cl)c(-c2cnc3cc(Br)ccn23)n1` [Example 126.19, 1-[4-[4-[[4-(7-bromoimidazo[1,2-a]pyridin-3-yl)-5-chloro-pyrimidin-2-yl]amino]-3-methoxy-phenyl]piperazin-1-yl]ethanone]: 15 nM; for `COc1cc(N2CCNCC2)ccc1Nc1ncc(Cl)c(-c2cnn3ccccc23)n1` [Example 129, 5-chloro-N-(2-methoxy-4-piperazin-1-yl-phenyl)-4-pyrazolo[1,5-a]pyridin-3-yl-pyrimidin-2-amine]: 3 nM.
With `COc1cc(N2CCN(C(=O)CO)CC2)ccc1Nc1ncc(Cl)c(-c2cnn3ccccc23)n1` [Example 130, 1-[4-[4-[(5-chloro-4-pyrazolo[1,5-a]pyridin-3-yl-pyrimidin-2-yl)amino]-3-methoxy-phenyl]piperazin-1-yl]-2-hydroxy-ethanone] the figure was 3 nM.
With `COc1cc(N2CCN(C(=O)[C@@H](C)O)CC2)ccc1Nc1ncc(Cl)c(-c2cnn3ccccc23)n1` [Example 131, (2R)-1-[4-[4-[(5-chloro-4-pyrazolo[1,5-a]pyridin-3-yl-pyrimidin-2-yl)amino]-3-methoxy-phenyl]piperazin-1-yl]-2-hydroxy-propan-1-one] the figure was 3 nM; with `COc1cc(N2CCN(C(=O)[C@H](C)N)CC2)ccc1Nc1ncc(Cl)c(-c2cnn3ccccc23)n1` [Example 132, (2S)-2-amino-1-[4-[4-[(5-chloro-4-pyrazolo[1,5-a]pyridin-3-yl-pyrimidin-2-yl)amino]-3-methoxy-phenyl]piperazin-1-yl]propan-1-one], 3 nM; with `CNCC(=O)N1CCN(c2ccc(Nc3ncc(Cl)c(-c4cnn5ccccc45)n3)c(OC)c2)CC1` [Example 133, 1-[4-[4-[(5-chloro-4-pyrazolo[1,5-a]pyridin-3-yl-pyrimidin-2-yl)amino]-3-methoxy-phenyl]piperazin-1-yl]-2-methylamino-ethanone], 3 nM.
Consider `COc1cc(N2CCN(CCO)CC2)ccc1Nc1ncc(Cl)c(-c2cnn3ccccc23)n1` [Example 134, 2-[4-[4-[(5-chloro-4-pyrazolo[1,5-a]pyridin-3-yl-pyrimidin-2-yl)amino]-3-methoxy-phenyl]piperazin-1-yl]ethanol], for which the IC50 worked out at 5 nM.
The same measure for `COc1cc(C2CN(C(=O)[C@H](C)O)C2)ccc1Nc1ncc(Cl)c(-c2cnn3ccccc23)n1` [Example 135A]: 11 nM.
With `COc1cc(C2CN(C(=O)[C@@H](C)O)C2)ccc1Nc1ncc(Cl)c(-c2cnn3ccccc23)n1` [Example 135B] the figure was 8 nM; with `COc1cc(C2CCN(C(=O)CO)CC2)ccc1Nc1ncc(Cl)c(-c2cnn3ccccc23)n1` [Example 137, 1-[4-[4-[(5-chloro-4-pyrazolo[1,5-a]pyridin-3-yl-pyrimidin-2-yl)amino]-3-methoxy-phenyl]-1-piperidyl]-2-hydroxy-ethanone], 3 nM.
The same measure for `COc1cc(C2CCN(C(=O)[C@@H](C)O)CC2)ccc1Nc1ncc(Cl)c(-c2cnn3ccccc23)n1` [Example 138, (2R)-1-[4-[4-[(5-chloro-4-pyrazolo[1,5-a]pyridin-3-yl-pyrimidin-2-yl)amino]-3-methoxy-phenyl]-1-piperidyl]-2-hydroxy-propan-1-one]: 3 nM; for `COc1cc(C2CCN(C(=O)[C@H](C)O)CC2)ccc1Nc1ncc(Cl)c(-c2cnn3ccccc23)n1` [Example 139, (2S)-1-[4-[4-[(5-chloro-4-pyrazolo[1,5-a]pyridin-3-yl-pyrimidin-2-yl)amino]-3-methoxy-phenyl]-1-piperidyl]-2-hydroxy-propan-1-one]: 12 nM; for `CNCC(=O)N1CCN(c2ccc(OC)c(Nc3ncc(Cl)c(-c4cnc5ccccn45)n3)c2)CC1` [Example 145, 1-[4-[3-[(5-chloro-4-imidazo[1,2-a]pyridin-3-yl-pyrimidin-2-yl)amino]-4-methoxy-phenyl]piperazin-1-yl]-2-(methylamino)ethanone]: 59 nM.
In the case of `COc1ccc(N2CCNCC2)cc1Nc1ncc(Cl)c(-c2cnn3ccccc23)n1` [Example 147, 5-chloro-N-(2-methoxy-5-piperazin-1-yl-phenyl)-4-pyrazolo[1,5-a]pyridin-3-yl-pyrimidin-2-amine], the concentration for half-maximal inhibition (IC50) was 14 nM.
